Experimental findings from patent US20220331348A1, “METHOD OF PREPARING PENTACYCLIC TRITERPENOID SAPONINS AND DRUG COMPOSITION” (CHINA PHARMACEUTICAL UNIVERSITY, priority 2019, published 2022) are described below.

In experiment [1] the test system is CCl4-induced hepatic fibrosis mice. Put plainly: CCl4-induced hepatic fibrosis mice. The experiment is classed as in vivo, mouse. The following applies: for MMP2 gene expression / TGF-β gene expression / collagen 1 gene expression: CCl4-induced hepatic fibrosis mice, 5 mg/Kg, n = 8. Here is the method:
Animal: 32 C57BL/6J male mice of SPF level with 25 g were purchased from Beijing Vital River Laboratory Animal Technology Co., Ltd. All the animals maintained 12 h alternative circadian rhythm with free access to food.
Reagent: the ginsenoside Ro was purchased from Shanghai Boka Chemistry Technology Co., Ltd; CCl4 was purchased from sigma Company; and sunflower seed oil was purchased from Nanjing Yuanye Biotechnology Co., Ltd.
The mice were randomly divided into 4 groups based on weights: a blank control group (CTL), a model group (CCl4), a ginsenoside Ro low-dosage group (Low) (5 mg/kg) and a ginsenoside Ro high-dosage group (High) (10 mg/kg), totally 4 groups (with 8 mice each).
A modeling mode was that the mice were given with a CCl4-contained sunflower seed oil solution (with a CCl4 content of 25%, v/v) in a dosage of 2mL/kg by intraperitoneal injection, and the mice in the control group were injected with a corresponding dosage of the sunflower seed oil solution two times per week. From experiment day 1 onward, the mice in the control group were given with a CMC-Na solution with the mass fraction of 0.5% intragastrically every day and with sunflower seed oil two times per week by intraperitoneal injection; the mice in the model group were given with the CMC-Na solution with the mass fraction of 0.5% intragastrically every day and with the CCl4-contained sunflower seed oil solution two times per week by intraperitoneal injection; the mice in the ginsenoside Ro low-dosage group (Low) were given with 5 mg/kg of the ginsenoside Ro intragastrically every day and with a CCl4 solution two times per week by intraperitoneal injection; and the mice in the ginsenoside Ro high-dosage group (High) were given with 10 mg/kg of the ginsenoside Ro intragastrically every day and with the CCl4-contained sunflower seed oil solution two times per week by intraperitoneal injection. Administration was conducted for a total of 4 weeks.
The mice were deprived of food but not water for 12 h in advance; and the next morning, blood was taken from eyeballs, the mice were sacrificed, and livers were harvested. Right liver lobule tissues were fixed with 4% paraformaldehyde for HE stained slicing. The rest liver tissues were divided into 3 parts, which were snap-frozen in liquid nitrogen for subsequent detection of other indexes.
Whole blood was left to still standing for 2 h at room temperature, centrifugation was conducted for 15 min at 3000 rpm, and a serum was collected and sent to Pathologic Department of Hospital of Integrated Traditional Chinese and Western Medicine in Jiangsu Province for determination of levels of glutamic oxalacetic transaminase (AST) and glutamic-pyruvic transaminase (ALT) in the serum with a full-automatic biochemical analyzer.
Pretreated tissues were sent to Google Biotechnology Co., Ltd for preparing HE stained slices.
6. Extraction of Liver Tissue RNA and q-PCR Detection Liver tissues preserved at −80° C. were put in the liquid nitrogen, about 10 mg of the liver tissues were quickly dissected out, about 500 μL of a precooled Trizol reagent was added, the tissues were homogenized with the homogenizer and then left to lyse on the ice for 15 min, 100 μL of chloroform was added for vigorous shaking for 15 s, and a product was put on the ice for 10 min and then was subjected to centrifugation for 15 min at 4° C. and 12000 rpm. An upper aqueous phase was transferred to a clean 1.5 mL EP tube, […] of isopropanol was added for RNA precipitation, the EP tube was put on the ice for 10 min and then was subjected to centrifugation for 10 min at 4° C. and 12000 rpm. The supernate was discarded, precipitates were washed one time with 75% ethyl alcohol, a supernate was discarded after centrifugation, and precipitates of
RNA dissolved with the water were treated with 40 mL of DEPC. […]

In experiment [2] the test system is TNBS modeled Crohn's disease model mice. As to the kind of experiment: 2,4,6-trinitrobenzene sulfonic acid (TNBS) modeled Crohn's disease model mice. The class given is in vivo, mouse. To be noted: dose not given; for expression level of inflammatory factor IL-1β / expression level of inflammatory factor TNF-α: vs model group. The protocol:
C57BL/6 male mice with 6-8 weeks old were selected and randomly divided into a control group, a mode group, a treatment group and a positive control group. Expect for the control group, after the mice in the rest groups anesthetized with isoflurane, hoses were carefully inserted into colons of the mice from anuses, and […] of 1.5% 2,4,6-trinitrobenzene sulfonic acid (TNBS) was slowly injected. Before the hoses were pulled out, the mice were placed upside down for 1 min. First intragastric administration was conducted at the day of enema treatment, the mice in the control group and the model group were orally administered with carboxymethyl cellulose sodium as a placebo, the mice in the treatment group were orally administered with the ziyuglycoside II (purchased from Shanghai Boka Chemistry Technology Co., Ltd) (with a dosage of 5 mg/kg), and the mice in the positive drug group were orally administered with 5-aminosalicylic acid as a clinical drug (5-ASA, purchased from Shanghai Sangon Biological Engineering Co., Ltd) (with a dosage of 100 mg/kg). Administration was continuously conducted for 7 days. In the administration process, the states of the mice were observed every day, and weight changes of the mice were recorded.
Differences in weight change of the mice in various groups were compared, from which, ziyuglycoside II has the treatment effect on the 2, 4, 6-trinitrobenzene sulfonic acid (TNBS) modeled Crohn's disease model mice.
The above mice were sacrificed by cervical dislocation at day 8, colon tissues were harvested, lengths of the colon tissues were measured for statistical summary, and differences in colon length of various groups were compared, from which, the ziyuglycoside II has significant treatment effect on the Crohn's disease model mice. […] 10 mg of proximal rectum segments of the colon tissues of the above mice were selected, PBS was added for homogenization, and centrifugation was conducted for taking a supernate. The supernate was subjected to ELISA detection, and protein quantification was conducted for inflammatory factors TNF- and IL-1. […] Myeloperoxidase (MPO) is an enzyme specific to neutrophils, and the amount of the neutrophils in the intestinal tracts may be reflected by detecting the MPO level. 5 mg of proximal rectum segments of the colon tissues of the above mice were selected, PBS was added for homogenization, and the content of the MPO in a homogenate was detected with a MPO kit (purchased from Nanjing Jiancheng Bioengineering Institute). […] Therefore, the ziyuglycoside II is expected to be useful for preparing the drug for preventing or treating the inflammatory bowel diseases such as the Crohn's disease.

Setting [3] is: CCl4 mice liver, 5 mg/kg and 10 mg/kg, 4 weeks, q-PCR (FIG. 9).
The mark [4] stands for this setting: CCl4 mice, low-dosage 5 mg/kg and high-dosage 10 mg/kg intragastrically every day, 4 weeks (FIG. 8).

`CC1(C)CC[C@]2(C(=O)O[C@@H]3O[C@H](CO)[C@@H](O)[C@H](O)[C@H]3O)CC[C@]3(C)C(=CC[C@@H]4[C@@]5(C)CC[C@H](O[C@@H]6O[C@H](C(=O)O)[C@@H](O)[C@H](O)[C@H]6O[C@@H]6O[C@H](CO)[C@@H](O)[C@H](O)[C@H]6O)C(C)(C)[C@@H]5CC[C@]43C)[C@@H]2C1` [(I), ginsenoside Ro]: in experiment [1] (setting [3]), the “mRNA expression level of -SMA” value is given as “significantly lowered”, the “mRNA expression level of MMP2” value is “significantly lowered”, the “mRNA expression level of TGF” value is “significantly lowered” and the “mRNA expression level of collagen 1” value is “significantly lowered”. In experiment [1] (setting [4]), the “level of the ALT in the serum” value is “significantly lowered” and the “level of the AST in the serum” value was “significantly lowered”. Moreover, in experiment [1] (CCl4 mice, summary in words), the “hepatic fibrosis induced by CCl4” value is listed as “significantly inhibit” and the “inflammatory responses of hepatic fibrosis animal models” value was “significantly inhibit”. Also, in experiment [2], the “colon length of the treatment group compared with the control group” value (shortened to “colon length … compared with the control group”) is reported as “nearly no difference”, the “expression level of inflammatory factor IL-1β” value is on record as “significantly lower than those of the model group” and the “expression level of inflammatory factor TNF-α” value is on record as “significantly lower than those of the model group”.

For `CC1(C)CC[C@]2(C(=O)O[C@@H]3O[C@H](CO[C@@H]4O[C@H](CO)[C@@H](O)[C@H](O)[C@H]4O)[C@@H](O)[C@H](O)[C@H]3O)CC[C@]3(C)C(=CC[C@@H]4[C@@]5(C)CC[C@H](O[C@@H]6OC[C@H](O)[C@H](O)[C@H]6O)[C@@](C)(CO)[C@@H]5CC[C@]43C)[C@@H]2C1` [(II), asperosaponin VI], in experiment [2], the “colon length … compared with the control group” value was “nearly no difference”, the “expression level of inflammatory factor IL-1β” value was “significantly lower than those of the model group” and the “expression level of inflammatory factor TNF-α” value was “significantly lower than those of the model group”.

With `C[C@H]1O[C@@H](O[C@H]2CC[C@@]3(C)[C@@H](CC[C@]4(C)[C@@H]3C=C[C@]35OC[C@@]6(CCC(C)(C)C[C@H]63)[C@@H](O)C[C@]54C)[C@]2(C)CO)[C@H](O)[C@@H](O[C@@H]2O[C@H](CO)[C@@H](O)[C@H](O)[C@H]2O)[C@H]1O` [(VII), saikosaponin A], in experiment [2], the “colon length … compared with the control group” value is reported as “nearly no difference”, the “expression level of inflammatory factor IL-1β” value is listed as “significantly lower than those of the model group” and the “expression level of inflammatory factor TNF-α” value is “significantly lower than those of the model group”.

For `C[C@H]1O[C@@H](O[C@H]2CC[C@@]3(C)[C@@H](CC[C@]4(C)[C@@H]3C=C[C@]35OC[C@@]6(CCC(C)(C)C[C@H]63)[C@H](O)C[C@]54C)[C@]2(C)CO)[C@H](O)[C@@H](O[C@@H]2O[C@H](CO)[C@@H](O)[C@H](O)[C@H]2O)[C@H]1O` [(VIII), saikosaponin D], in experiment [2], the “colon length … compared with the control group” value is recorded as “nearly no difference”, the “expression level of inflammatory factor IL-1β” value is “significantly lower than those of the model group” and the “expression level of inflammatory factor TNF-α” value was “significantly lower than those of the model group”.

Take `C[C@@H]1O[C@@H](O[C@H]2[C@H](O[C@H]3CC[C@@]4(C)[C@@H](CC[C@]5(C)[C@@H]4CC=C4[C@@H]6CC(C)(C)CC[C@]6(C(=O)O)CC[C@]45C)[C@]3(C)CO)OC[C@H](O)[C@@H]2O)[C@H](O)[C@H](O)[C@H]1O` [(X), α-hederin]: in experiment [1], the MMP2 gene expression is listed as 6.37 ± 5.73 fold induction compared with the control group, the TGF-β gene expression was 2.75 ± 0.99 fold induction compared with the control group and the “collagen 1 gene expression” value is 7.93 ± 2.28 fold induction compared with the control group. Also, the “hepatic fibrosis induced by CCl4” value in experiment [1] (CCl4 mice, summary in words) was “effectively inhibit”. Besides, in experiment [2], the “colon length … compared with the control group” value was “nearly no difference”, the “expression level of inflammatory factor IL-1β” value is “significantly lower than those of the model group” and the “expression level of inflammatory factor TNF-α” value is on record as “significantly lower than those of the model group”.

As to `C[C@@H]1O[C@@H](O[C@H]2[C@H](O[C@H]3CC[C@@]4(C)[C@@H](CC[C@]5(C)[C@@H]4CC=C4[C@@H]6CC(C)(C)CC[C@]6(C(=O)O[C@@H]6O[C@H](CO[C@@H]7O[C@H](CO)[C@@H](O[C@@H]8O[C@@H](C)[C@H](O)[C@@H](O)[C@H]8O)[C@H](O)[C@H]7O)[C@@H](O)[C@H](O)[C@H]6O)CC[C@]45C)[C@]3(C)CO)OC[C@H](O)[C@@H]2O)[C@H](O)[C@H](O)[C@H]1O` [(XI), hederacoside C], in experiment [1], the MMP2 gene expression is 7.65 ± 4.03 fold induction compared with the control group, the TGF-β gene expression is listed as 2.96 ± 1.01 fold induction compared with the control group and the “collagen 1 gene expression” value was 8.07 ± 3.27 fold induction compared with the control group. In addition, in experiment [1] (CCl4 mice, summary in words), the “hepatic fibrosis induced by CCl4” value was “effectively inhibit”. Also, in experiment [2], the “colon length … compared with the control group” value is given as “nearly no difference”, the “expression level of inflammatory factor IL-1β” value is reported as “significantly lower than those of the model group” and the “expression level of inflammatory factor TNF-α” value is “significantly lower than those of the model group”.

In the case of `C[C@@H]1CC[C@]2(C(=O)O[C@@H]3O[C@H](CO)[C@@H](O)[C@H](O)[C@H]3O)CC[C@]3(C)C(=CC[C@@H]4[C@@]5(C)CC[C@H](O[C@@H]6OC[C@H](O)[C@H](O)[C@H]6O)C(C)(C)[C@@H]5CC[C@]43C)[C@@H]2[C@]1(C)O` [(XII), ziyuglycoside I], in experiment [1], the MMP2 gene expression is given as 8.38 ± 3.86 fold induction compared with the control group, the TGF-β gene expression was 2.91 ± 1.10 fold induction compared with the control group and the “collagen 1 gene expression” value is given as 7.65 ± 2.43 fold induction compared with the control group. The “hepatic fibrosis induced by CCl4” value in experiment [1] (CCl4 mice, summary in words) was “effectively inhibit”. Besides, in experiment [2], the “colon length … compared with the control group” value is given as “nearly no difference”, the “expression level of inflammatory factor IL-1β” value was “significantly lower than those of the model group” and the “expression level of inflammatory factor TNF-α” value was “significantly lower than those of the model group”.
